Data set [1] concerns irinotecan-treated mice. Particulars: mouse, in vivo. The protocol:
(§1) FIG. 2. (A) Prevalence of positive bacterial aerobic cultures from mesenteric, splenic, and liver homogenates and whole blood. Groups of mice (n=20 mice for each treatment group) were pretreated for 3 days with either saline or h[Gly2]-GLP-2 as shown in FIG. 1A and euthanized 96 hrs after commencing irinotecan treatment (two injections of 280 mg/kg per dose). *=P<0.05, saline versus h[Gly2]-GLP-2 treated mice after irinotecan. […] (B) The leukocyte count in saline- and h[Gly2]-GLP-2 treated control and irinotecan-treated mice. + and *=p<0.05 for saline- and h[Gly2]-GLP-2-treated groups versus irinotecan-treated mice. #=P<0.05, irinotecan-treated mice pretreated with saline versus h[Gly2]-GLP-2.
Microbiology: At various time points following chemotherapy administration, aliquots of whole blood and tissue homogenates obtained using sterile technique were plated on blood agar plates and incubated at 37° C. for 48 hrs.

Data set [2] deals with irinotecan-treated CD1 mice, jejunum and colon crypts. Put plainly: Crypt survival and cell number per hemi-crypt (histology) after irinotecan. The format is in vivo, mouse. The conditions noted are these: small and large intestine following irinotecan; FIGS. 3A-D. The protocol: FIG. 3. Mean crypt survival (A and C) and mean cell number per hemi-crypt (B and D) from the midjejunum (A and B) and colon (C and D) of control and irinotecan-treated CD1 mice administered either saline (vehicle) or h[Gly2]-GLP-2 as a 3 day pretreatment regimen. Dotted lines represent line of best fit for data shown between 60 and 96 h. Five mice per treatment group were euthanized for analysis commencing immediately prior to the first of two injections of irinotecan (280 mg/kg per dose) and at 12 hr intervals up to 96 hrs. Crypt survival was measured along the entire bowel circumference, and the mean cell number per hemi-crypt determined in 50 consecutive intact crypts per animal. *=P<0.05, **=P<0.001, saline versus h[Gly2]-GLP-2 treated mice.
Histological Analysis: Four- to six-micrometer histological cross sections from the intestine of each mouse were cut and stained with hematoxylin and eosin and micrometry was performed as described. Boushey, R. P. et al., Am. J. Physiol. 277: E937-E947, 1999. The number of cells per hemi-crypt column and the number of surviving crypts per circumference were measured in both the small and large intestine at 12 h intervals (n=5 mice per time point) following irinotecan administration as previously described. Wright, N. A. et al., Cell Tissue Kinet. 22: 425-50, 1989; Withers, H. R. et al., Int. J. Radiat. […] All slides were scored in a blinded fashion.

Data set [3] concerns irinotecan-treated mice. As to the kind of experiment: Leukocyte count after irinotecan. The format is in vivo, mouse. The conditions noted are these: mice following irinotecan treatment. The protocol:
as §1
Leukocyte Count: Whole blood samples were collected in venipuncture tubes containing EDTA and analyzed using an automated whole blood sorter calibrated for mouse samples. Blood smears were performed on all samples to confirm the automated analysis.

For data set [4], the system named is rodents with indomethacin-induced intestinal injury. Particulars: Boushey et al. 1999, cited from earlier work.
[5] abbreviates: mice following indomethacin-induced intestinal injury.
Where [6] appears, read: rodents with indomethacin-induced intestinal injury.

`CC[C@H](C)[C@H](NC(=O)[C@H](Cc1ccccc1)NC(=O)[C@H](CC(=O)O)NC(=O)[C@H](CCCNC(=N)N)NC(=O)[C@H](C)NC(=O)[C@H](C)NC(=O)[C@H](CC(C)C)NC(=O)[C@H](CC(N)=O)NC(=O)[C@H](CC(=O)O)NC(=O)[C@H](CC(C)C)NC(=O)[C@@H](NC(=O)[C@@H](NC(=O)[C@H](CC(N)=O)NC(=O)[C@H](CCSC)NC(=O)[C@H](CCC(=O)O)NC(=O)[C@H](CC(=O)O)NC(=O)[C@H](CO)NC(=O)[C@H](Cc1ccccc1)NC(=O)[C@H](CO)NC(=O)CNC(=O)[C@H](CC(=O)O)NC(=O)CNC(=O)[C@@H](N)Cc1c[nH]cn1)[C@@H](C)O)[C@@H](C)CC)C(=O)N[C@@H](CC(N)=O)C(=O)N[C@@H](Cc1c[nH]c2ccccc12)C(=O)N[C@@H](CC(C)C)C(=O)N[C@H](C(=O)N[C@@H](CCC(N)=O)C(=O)N[C@H](C(=O)N[C@@H](CCCCN)C(=O)N[C@H](C(=O)N[C@H](C(=O)N[C@@H](CC(=O)O)C(=O)O)[C@@H](C)O)[C@@H](C)CC)[C@@H](C)O)[C@@H](C)CC` [h[Gly2]-GLP-2]: the “bacterial colonies in homogenates” value with irinotecan-treated mice [1] was “No bacterial colonies were detected”.
As to `CCc1c2c(nc3ccc(OC(=O)N4CCC(N5CCCCC5)CC4)cc13)-c1cc3c(c(=O)n1C2)COC(=O)[C@]3(O)CC` [irinotecan, 7-ethyl-10-[4-(1-piperidino)-1-piperidino] carbonyloxycamptothecin], the “number of crypts and number of cells within each crypt” value in data set [2] was “significant reduction in both the number of crypts and in the number of cells within each crypt”. For the same compound, the “leukocyte count after irinotecan treatment” value with irinotecan-treated mice [3] is listed as “significant leukopenia”.
In the case of “GLP-2: 33 amino acid product of the glucagon gene, an intestinotrophic peptide secreted by enteroendocrine cells (HADGSFSDEMNTILDNLAARDFINWLIQTKITD; Glucagon-like peptide 2; UniProt P01275 146-178, looked up)”, in data set [4] (setting [5]), the “bacterial infection in the liver and spleen” value is “decreased bacterial infection in the liver and spleen”; the circulating bacteremia entry is recorded as “markedly reduced circulating bacteremia”. Besides, in data set [4] (setting [6]), the epithelial damage result is recorded as “reduces epithelial damage” and the survival entry is recorded as “improves survival”.
